From PubChem BioAssay (NCI)
Values joined by “and” are separate entries in the source; they are usually repeats but may differ in a detail not shown here. Identical values can stand only once.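 Briefly, cells in 96-well plates were exposed to five compound concentrations for 48 h, and endpoints were estimated by linear interpolation. GI50 = concentration required for 50% inhibition of growth. The concentration for full growth arrest is given as TGI.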

Each molecule was assayed on MCF7 breast (assay: growth of human tumour cells (NCI), 48 h).

| SMILES | GI50 [µM] | TGI [µM] |
| --- | --- | --- |
| Cc1ccc(Cl)cc1Nc1nc(C(F)(F)F)ccc1C(=O)N1CCN(c2ccc(F)cc2)CC1 | 11.7 | 38.7 |
| O=C(Nc1ccc(OS(=O)(=O)c2ccccc2)cc1)C12CC3CC(CC(C3)C1)C2 | 3.26 | > 100 |
| O=S(=O)([O-])c1ccc2c(c1)-c1nc-2nc2[n-]c(nc3nc(nc4[n-]c(n1)c1ccc(S(=O)(=O)[O-])cc41)-c1cc(S(=O)(=O)[O-])ccc1-3)c1ccc(S(=O)(=O)[O-])cc21.[Cu+2].[Na+] | > 100 | > 100 |
| CCN1CCN(c2ccc(Nc3cc(N(C)C(=O)Nc4c(Cl)c(OC)cc(OC)c4Cl)ncn3)cc2)CC1 | 2.41 | 11.8 |
| CC(C)c1ccc(Nc2ccc3c(OCCCN4CCN(C)CC4)cccc3n2)cc1 | 3.21 | 15 |
| COc1ccc(N(C)c2ncnc3occ(C)c23)cc1 | < 0.01 | > 100 |
| O=C1NC(=Nc2ccccc2)S/C1=C\c1ccc2ncccc2c1 | 0.953 | > 25 |
| C/C1=C\CC[C@@]2(C)O[C@@H]2[C@H]2OC(=O)[C@@H](CN(C)C)[C@@H]2CC1 | 4.96 | > 100 |
| C=C(C)[C@@]12OC3(/C=C/C=C/CCCCC)O[C@@H]1[C@@H]1[C@@H]4O[C@]4(CO)[C@@H](O)[C@]4(O)C(=O)C(C)=C[C@H]4[C@@]1(O3)[C@H](C)[C@H]2OC(=O)c1ccccc1 | 1.55 | 3.31 |
| C/C(=C\CCc1ccoc1)CC/C=C(\C)CCCC1=CC(=O)OC1 | 3.47 | 36.9 |
| NC(=NCCCOc1ccc(Cl)cc1)Nc1ccc(C(F)(F)F)cc1 | 1.72 | 4.85 |

The molecules below were run on SW-620 colon (assay: growth of human tumour cells (NCI), 48 h).

| SMILES | TGI | GI50 |
| --- | --- | --- |
| O=C(CCCn1ccnc1[N+](=O)[O-])NCCn1cncc1[N+](=O)[O-] | > 100 µM | – |
| C[As](C)SC1OC(CO)C(O)C1O (configuration not stated) | 1.61 µM | 0.391 µM |
| CCCCCCCCCC/C=C/CC(=O)SCCNC(=O)CCNC(=O)[C@@H](O)C(C)(C)COP(=O)(O)OP(=O)(O)OCC1OC(n2cnc3c(N)ncnc32)C(O)C1OP(=O)(O)O (some centres not stated) | > 10 µM | – |
| OCCN1CN(CCO)CN(c2nc(N3CN(CCO)CN(CCO)C3)nc(N3CN(CCO)CN(CCO)C3)n2)C1 | 1.04 ng/mL | – |
| Cn1c(=O)c2c(nc(Nc3cc(=O)[nH]c(=O)[nH]3)n2Cc2ccccc2)n(C)c1=O | > 100 µM | > 100 µM |
| COc1ccc2c(c1)CCC1C2CC[C@@]2(C)C1CC1=CC(COC(C)=O)C3C(=O)c4ccccc4C(=O)C3C12 (some centres not stated) | > 100 µM | > 100 µM |
| C=C(F)C(=O)N1CCN(c2nc(OC[C@@H]3CCCN3C)nc3c2CCN(c2cccc4cccc(Cl)c24)C3)C[C@@H]1CC#N | 2.52 µM | 0.992 µM |
| Cc1c2cccnc2c(C)c2c1c1cc(CO)ccc1n2C | 14.5 µM | 1.25 µM |
| CC/C(=C(/c1ccc(OCCN(C)C)cc1)c1ccc(OC(=O)CCCCC(=O)c2c(C)[nH]c(/C=C3\N=C(c4ccc[nH]4)C=C3OC)c2C)cc1)c1ccccc1 | 11.4 µM | 3.16 µM |
| CC[C@]12C=CCN3CC[C@@]4(c5ccc(OC)cc5N(C)[C@H]4[C@@](O)(C(=O)OC)[C@@H]1OC(=O)CCC[P+](c1ccccc1)(c1ccccc1)c1ccccc1)[C@@H]32 | 7.04 µM and 11.4 µM | 1.01 µM and 0.749 µM |
| CC(=O)OC1Oc2ccccc2-c2oc(=O)c(-c3cc(=O)oc4cc(O)ccc34)cc21 (configuration not stated) | 74.4 µM | 25.8 µM |
| Ic1ccc(Nc2nc3nonc3nc2Nc2ccc(I)cc2)cc1 | > 100 µM | 0.296 µM |
| CC(SC(C)C(=O)N/N=C/c1cccc(Cl)c1)C(=O)N/N=C\c1cccc(Cl)c1 (configuration not stated) | 6.65 µM | 2.6 µM |
| CCOC(=O)/C=C/C(C(=O)/C=C/c1ccc(OC2CCCCO2)c(OC)c1)=C(O)\C=C\c1ccc(OC2CCCCO2)c(OC)c1 (configuration not stated) | > 100 µM | 3.65 µM |
| Cc1ccc(Cl)cc1Nc1nc(C(F)(F)F)ccc1C(=O)N1CCN(c2ccc(F)cc2)CC1 | 24.6 µM | 12.2 µM |
| O=C(Nc1ccc(OS(=O)(=O)c2ccccc2)cc1)C12CC3CC(CC(C3)C1)C2 | > 100 µM | 1.97 µM |
| O=S(=O)([O-])c1ccc2c(c1)-c1nc-2nc2[n-]c(nc3nc(nc4[n-]c(n1)c1ccc(S(=O)(=O)[O-])cc41)-c1cc(S(=O)(=O)[O-])ccc1-3)c1ccc(S(=O)(=O)[O-])cc21.[Cu+2].[Na+] | > 71 µM | 10.8 µM |
| CCN1CCN(c2ccc(Nc3cc(N(C)C(=O)Nc4c(Cl)c(OC)cc(OC)c4Cl)ncn3)cc2)CC1 | 9.76 µM | 2.42 µM |
| CC(C)c1ccc(Nc2ccc3c(OCCCN4CCN(C)CC4)cccc3n2)cc1 | 22.9 µM | 8.9 µM |
